According to BindingDB's records for doi:10.1021/acs.biochem.5b00106 (Louis Stokes Cleveland Veterans Affairs Medical Center, 2015):

Tests used:
[1] = target: Metallo-beta-lactamase VIM-2 (Klebsiella pneumoniae, UniProt Q3Y6Q3); assay: Direct Competition Assay
Procedure: (§1) The Ki for each inhibitor was determined by direct competition assays under steady-state conditions. The initial velocity was measured in the presence of a constant concentration of enzyme (3 nM for VIM-2 and 4 nM for VIM-24) with increasing concentrations of inhibitor (5−60 μM) against a fixed concentration (5KM) of the indicator substrate, NCF, as previously described. The reactionswere started by addition of VIM-2 or VIM-24 to substrate or to mixtures of substrate and inhibitor.

VIM-24 = VIM-24 (Klebsiella pneumoniae, UniProt E0AFT6); assay: Direct Competition Assay
Procedure: as §1

Compound	Ki [1] [µM]	Ki (VIM-24) [µM]
CC1(C)S[C@@H]2CS[C@@H](CS)N2[C@H]1C(=O)O [D-VC26]	14	12
CC1(C)S[C@H]2CS[C@H](CS)N2[C@@H]1C(=O)O [L-VC26]	3.8	4.9
O=C(O)[C@H]1CS[C@@H]2CS[C@@H](CS)N12 [D-CS319]	5.4	11
O=C(O)[C@@H]1CS[C@H]2CS[C@H](CS)N21 [L-CS319]	3.7	6
